Experiment [1] relates to p21 induction in HCT 116 cells. The experiment is described as follows: p21 induction in cells (In-Cell Western, p21/GAPDH ratio). The class given is cell-based. Conditions: 24 h compound incubation, read-out: p21_EC50. In short, it runs like this: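 EC50 values come from nonlinear fits of percent activation, defined by the 800/700 nm p21-to-GAPDH ratio scaled between DMSO (low) and internal WRN inhibitor (high) controls. In-Cell Western read after 24 h compound exposure of HCT 116 cells at 37° C. Duplicate 11-point series, 2-fold steps, usually starting at 10 μM.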

Experiment [2] deals with human Werner helicase (WRN, amino acids 517-1235 with L1074F point mutation) (Homo sapiens (Human), UniProt Q14191, L1074F). The experiment is described as follows: WRN (BV08) ADP-Glo assay. The class given is biochemical. To be noted: human WRN (aa 517-1235, L1074F), read-out: ADP-Glo_hWRN_IC50. In short, it runs like this: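 ADP-Glo luminescence read after 60 min, 25 °C reaction of 0.15 nM WRN (517-1235, L1074F, Sf9-expressed, tag removed) with 0.1 nM DNA duplex and 5 μM ATP, following 15 min compound preincubation; 20 mM Bicine pH 7.5, 1% DMSO. IC50 from 3- or 4-parameter fit of % inhibition.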
Chain of human Werner helicase (WRN, amino acids 517-1235 with L1074F point mutation) (Q14191 other isoform, or with tags, fused parts or gaps L1074F (already in the parent)): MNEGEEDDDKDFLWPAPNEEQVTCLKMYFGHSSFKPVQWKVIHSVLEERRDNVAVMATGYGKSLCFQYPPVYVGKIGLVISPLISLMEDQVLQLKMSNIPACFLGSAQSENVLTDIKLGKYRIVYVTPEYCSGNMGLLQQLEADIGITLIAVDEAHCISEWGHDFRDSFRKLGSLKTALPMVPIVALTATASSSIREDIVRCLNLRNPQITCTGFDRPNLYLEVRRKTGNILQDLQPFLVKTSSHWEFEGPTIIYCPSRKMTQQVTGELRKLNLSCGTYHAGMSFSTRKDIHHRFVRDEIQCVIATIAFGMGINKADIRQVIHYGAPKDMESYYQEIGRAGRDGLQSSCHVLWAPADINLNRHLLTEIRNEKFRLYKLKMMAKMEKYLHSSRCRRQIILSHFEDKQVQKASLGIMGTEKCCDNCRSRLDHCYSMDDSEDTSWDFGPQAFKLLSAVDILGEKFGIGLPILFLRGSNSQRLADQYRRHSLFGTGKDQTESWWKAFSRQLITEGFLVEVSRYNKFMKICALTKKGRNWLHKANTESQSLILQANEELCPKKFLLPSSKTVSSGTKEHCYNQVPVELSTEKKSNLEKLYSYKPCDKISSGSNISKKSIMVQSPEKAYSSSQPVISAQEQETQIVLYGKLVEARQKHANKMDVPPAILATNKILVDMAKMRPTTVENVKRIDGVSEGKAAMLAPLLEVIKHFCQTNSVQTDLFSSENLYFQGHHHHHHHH
For orientation: In ADP-Glo the light output rises with the ADP produced.

Here are results for 16 compounds from patent US20250129069A1, “TRIAZOLO WRN INHIBITORS” (Nimbus Wadjet, Inc., priority 2023, published 2025).

Like-named read-outs stand apart in the source and are kept apart here. A value given as a limit tells only on which side of the number the result lay.

Take `CCc1c(N2CCN(C(=O)c3ncc4c(c3O)CCO4)CC2)c(=O)c2nn(-c3ccnc(OC)c3)nc2n1CC(=O)Nc1ccc(C(F)(F)F)cc1Cl` [Compound I-152, N-[2-chloro-4-(trifluoromethyl)phenyl]-2-[5-ethyl-6-(4-{4-hydroxy-2H,3H-furo[2,3-c]pyridine-5-carbonyl}piperazin-1-yl)-2-(2-methoxypyridin-4-yl)-7-oxo-2H,4H,7H-[1,2,3]triazolo[4,5-b]pyridin-4-yl]acetamide]: in experiment [1] (Homo sapiens), the EC50 is at most 500 nM. In addition, in experiment [2], the IC50 was at most 5 nM.
Taken in the same sequence, the figures for `CCc1c(N2CCN(C(=O)c3c(OC)ncc(F)c3O)[C@H]3CC[C@@H]32)c(=O)c2nn(-c3ccnc(OC)c3)nc2n1CC(=O)NC12CC(C(C)C)(C1)C2` [Compound I-177, 2-{5-ethyl-6-[(1S,6S)-5-(5-fluoro-4-hydroxy-2-methoxypyridine-3-carbonyl)-2,5-diazabicyclo[4.2.0]octan-2-yl]-2-(2-methoxypyridin-4-yl)-7-oxo-2H,4H,7H-[1,2,3]triazolo[4,5-b]pyridin-4-yl}-N-[3-(propan-2-yl)bicyclo[1.1.1]pentan-1-yl]acetamide] were at most 500 nM and at most 5 nM.
As to `CCOc1ncc(C)c(O)c1C(=O)N1CCN(c2c(CC)n(CC(=O)NC34CC(C(C)C)(C3)C4)c3nn(-c4ccnc(OC)c4)nc3c2=O)CC1` [Compound I-98, 2-{6-[4-(2-ethoxy-4-hydroxy-5-methylpyridine-3-carbonyl)piperazin-1-yl]-5-ethyl-2-(2-methoxypyridin-4-yl)-7-oxo-2H,4H,7H-[1,2,3]triazolo[4,5-b]pyridin-4-yl}-N-[3-(propan-2-yl)bicyclo[1.1.1]pentan-1-yl]acetamide], the EC50 in experiment [1] (Homo sapiens) was at most 500 nM. Also, the IC50 in experiment [2] is 5 to 50 nM.
On to `CCc1c(N2CCN(C(=O)c3ncnc(C)c3O)[C@H]3CC[C@@H]32)c(=O)c2nn(-c3ccccn3)nc2n1CC(=O)NC12CC(C(C)C)(C1)C2` [Compound I-90, 2-{5-ethyl-6-[(1S,6S)-5-(5-hydroxy-6-methylpyrimidine-4-carbonyl)-2,5-diazabicyclo[4.2.0]octan-2-yl]-7-oxo-2-(pyridin-2-yl)-2H,4H,7H-[1,2,3]triazolo[4,5-b]pyridin-4-yl}-N-[3-(propan-2-yl)bicyclo[1.1.1]pentan-1-yl]acetamide], for which the EC50 in experiment [1] is at most 500 nM. The IC50 in experiment [2] fell in the range of 5 to 50 nM.
Regarding `CCc1c(N2CCN(C(=O)c3ncnc(C)c3O)[C@H]3CC[C@@H]32)c(=O)c2nn(-c3ccn(C)n3)nc2n1CC(=O)NC12CC(C(C)C)(C1)C2` [Compound I-187, 2-{5-ethyl-6-[(1S,6S)-5-(5-hydroxy-6-methylpyrimidine-4-carbonyl)-2,5-diazabicyclo[4.2.0]octan-2-yl]-2-(1-methyl-1H-pyrazol-3-yl)-7-oxo-2H,4H,7H-[1,2,3]triazolo[4,5-b]pyridin-4-yl}-N-[3-(propan-2-yl)bicyclo[1.1.1]pentan-1-yl]acetamide], the EC50 in experiment [1] (Homo sapiens) was at most 500 nM. For the same compound, in experiment [2], the IC50 lay within 5 to 50 nM.
On to `CCc1c(N2CCN(C(=O)c3ncnc(C)c3O)[C@H]3CC[C@@H]32)c(=O)c2nn(-c3ccnc(OC)c3)nc2n1CC(=O)NC1CC2(CCCC2)C1` [Compound I-89, 2-{5-ethyl-6-[(1S,6S)-5-(5-hydroxy-6-methylpyrimidine-4-carbonyl)-2,5-diazabicyclo[4.2.0]octan-2-yl]-2-(2-methoxypyridin-4-yl)-7-oxo-2H,4H,7H-[1,2,3]triazolo[4,5-b]pyridin-4-yl}-N-{spiro[3.4]octan-2-yl}acetamide], for which the EC50 in experiment [1] (Homo sapiens) is at most 500 nM. In addition, the IC50 in experiment [2] is 5 to 50 nM.
As to `CCc1c(N2CCN(C(=O)c3ncnc(C)c3O)CC2)c(=O)c2nn(-c3ccnc(OC)c3)nc2n1CC(=O)Nc1ccc(C(F)(F)F)cc1Cl` [Compound I-1, N-(2-chloro-4-(trifluoromethyl)phenyl)-2-(5-ethyl-6-(4-(5-hydroxy-6-methylpyrimidine-4-carbonyl)piperazin-1-yl)-2-(2-methoxypyridin-4-yl)-7-oxo-2,7-dihydro-4H-[1,2,3]triazolo[4,5-b]pyridin-4-yl)acetamide], the EC50 in experiment [1] was at most 500 nM. In addition, the IC50 in experiment [2] fell in the range of 5 to 50 nM.
In the case of `CCc1c(N2CCN(C(=O)c3ncnc(C)c3O)CC2)c(=O)c2nn(C3=CCOCC3)nc2n1CC(=O)Nc1ccc(C(F)(F)F)cc1Cl` [Compound I-144, N-[2-chloro-4-(trifluoromethyl)phenyl]-2-[2-(3,6-dihydro-2H-pyran-4-yl)-5-ethyl-6-[4-(5-hydroxy-6-methylpyrimidine-4-carbonyl)piperazin-1-yl]-7-oxo-2H,4H,7H-[1,2,3]triazolo[4,5-b]pyridin-4-yl]acetamide], the EC50 in experiment [1] (Homo sapiens) is at most 500 nM. Also, in experiment [2], the IC50 was 5 to 50 nM.
Taken in the same sequence, the figures for `CCc1c(N2CCN(C(=O)c3ncnc(C)c3O)[C@H]3CC[C@@H]32)c(=O)c2nn(C3CC3)nc2n1CC(=O)NC12CC(C3CC3)(C1)C2` [Compound I-32, 2-{2-cyclopropyl-5-ethyl-6-[(1S,6S)-5-(5-hydroxy-6-methylpyrimidine-4-carbonyl)-2,5-diazabicyclo[4.2.0]octan-2-yl]-7-oxo-2H,4H,7H-[1,2,3]triazolo[4,5-b]pyridin-4-yl}-N-{3-cyclopropylbicyclo[1.1.1]pentan-1-yl}acetamide] were 500 to 2000 nM and 5 to 50 nM.
For `CCc1c(N2CCN(C(=O)c3ncnc(C)c3O)[C@H]3CC[C@@H]32)c(=O)c2nn(C3=CCOCC3)nc2n1CC(=O)Nc1ccc(C(F)(F)F)cc1Cl` [Compound I-20, N-(2-chloro-4-(trifluoromethyl)phenyl)-2-(2-(3,6-dihydro-2H-pyran-4-yl)-5-ethyl-6-((1S,6S)-5-(5-hydroxy-6-methylpyrimidine-4-carbonyl)-2,5-diazabicyclo[4.2.0]octan-2-yl)-7-oxo-2,7-dihydro-4H-[1,2,3]triazolo[4,5-b]pyridin-4-yl)acetamide], the EC50 in experiment [1] (Homo sapiens) was at most 500 nM. Further, the IC50 in experiment [2] is at most 5 nM.
Taken in the same sequence, the figures for `CCc1c(N2CCN(C(=O)c3cncnc3OC)[C@H]3CC[C@@H]32)c(=O)c2nn(C3=CCOCC3)nc2n1CC(=O)NC12CC(C(C)C)(C1)C2` [Compound I-201, 2-[2-(3,6-dihydro-2H-pyran-4-yl)-5-ethyl-6-[(1S,6S)-5-(4-methoxypyrimidine-5-carbonyl)-2,5-diazabicyclo[4.2.0]octan-2-yl]-7-oxo-2H,4H,7H-[1,2,3]triazolo[4,5-b]pyridin-4-yl]-N-[3-(propan-2-yl)bicyclo[1.1.1]pentan-1-yl]acetamide] were at most 500 nM and 5 to 50 nM.
Taken in the same sequence, the figures for `CCc1c(N2CCN(C(=O)c3c(OC)ncc(C)c3O)CC2)c(=O)c2nn(-c3ccnc(OC)c3)nc2n1CC(=O)NC12CC(C(C)(F)F)(C1)C2` [Compound I-122, N-[3-(1,1-difluoroethyl)bicyclo[1.1.1]pentan-1-yl]-2-{5-ethyl-6-[4-(4-hydroxy-2-methoxy-5-methylpyridine-3-carbonyl)piperazin-1-yl]-2-(2-methoxypyridin-4-yl)-7-oxo-2H,4H,7H-[1,2,3]triazolo[4,5-b]pyridin-4-yl}acetamide] were 500 to 2000 nM and 5 to 50 nM.
The like results for `CCc1c(N2CCN(C(=O)c3c(OC)ncc(C)c3O)[C@H]3CC[C@@H]32)c(=O)c2nn(C3=CCOCC3)nc2n1CC(=O)Nc1ccc(C(F)(F)F)cc1Cl` [Compound I-23, N-(2-chloro-4-(trifluoromethyl)phenyl)-2-(2-(3,6-dihydro-2H-pyran-4-yl)-5-ethyl-6-((1S,6S)-5-(4-hydroxy-2-methoxy-5-methylnicotinoyl)-2,5-diazabicyclo[4.2.0]octan-2-yl)-7-oxo-2,7-dihydro-4H-[1,2,3]triazolo[4,5-b]pyridin-4-yl)acetamide] were, in that order, at most 500 nM and at most 5 nM.
As for `CCc1c(N2CCN(C(=O)c3cccc4ncoc34)[C@H]3CC[C@@H]32)c(=O)c2nn(-c3ccnc(OC)c3)nc2n1CC(=O)Nc1ccc(C(F)(F)F)cc1Cl` [Compound I-107, 2-{6-[(1S,6S)-5-(1,3-benzoxazole-7-carbonyl)-2,5-diazabicyclo[4.2.0]octan-2-yl]-5-ethyl-2-(2-methoxypyridin-4-yl)-7-oxo-2H,4H,7H-[1,2,3]triazolo[4,5-b]pyridin-4-yl}-N-[2-chloro-4-(trifluoromethyl)phenyl]acetamide], the EC50 in experiment [1] (Homo sapiens) is at most 500 nM. The IC50 in experiment [2] lay in the range of 5 to 50 nM.
Taken in the same sequence, the figures for `CCc1c(N2CCN(C(=O)c3c(OC)ccc[n+]3[O-])CC2)c(=O)c2nn(C3=CCOCC3)nc2n1CC(=O)Nc1ccc(C(F)(F)F)cc1Cl` [Compound I-214, 2-{4-[4-({[2-chloro-4-(trifluoromethyl)phenyl]carbamoyl}methyl)-2-(3,6-dihydro-2H-pyran-4-yl)-5-ethyl-7-oxo-2H,4H,7H-[1,2,3]triazolo[4,5-b]pyridin-6-yl]piperazine-1-carbonyl}-3-methoxypyridin-1-ium-1-olate] were above 5000 nM and 5 to 50 nM.
Taken in the same sequence, the figures for `CCc1c(N2CCN(C(=O)c3c(OC)ncc(C)c3O)[C@H]3CC[C@@H]32)c(=O)c2nn(-c3ccnc(C)c3)nc2n1CC(=O)Nc1ccc(C(F)(F)F)cc1Cl` [Compound I-100, N-[2-chloro-4-(trifluoromethyl)phenyl]-2-{5-ethyl-6-[(1S,6S)-5-(4-hydroxy-2-methoxy-5-methylpyridine-3-carbonyl)-2,5-diazabicyclo[4.2.0]octan-2-yl]-2-(2-methylpyridin-4-yl)-7-oxo-2H,4H,7H-[1,2,3]triazolo[4,5-b]pyridin-4-yl}acetamide] were at most 500 nM and 5 to 50 nM.
